Laboratory results reported in ChEMBL document CHEMBL1157232, “Wortmannilactones A-D, 22-membered triene macrolides from Talaromyces wortmannii” (J Nat Prod, 2006).
Converted amounts (≈) assume the structure as drawn.

Experiments:
MDA-MB-231 = experiment: Cytotoxicity against human MDA-MB-231 cells; type: functional, cell-based
[1] = Cytotoxicity against human HCT5 cells; type: functional, cell-based
A549 = experiment: Cytotoxicity against human A549 cells; type: functional, cell-based
[2] = Cytotoxicity against human HCT115 cells; type: functional, cell-based
K562 = experiment: Cytotoxicity against human K562 cells; type: functional, cell-based
Human alphaherpesvirus 2 = experiment: Antiviral activity against Herpes simplex virus 2; type: functional, organism-based
B16-F10 = experiment: Cytotoxicity against mouse B16-F10 cells; type: functional, cell-based
Human alphaherpesvirus 1 = experiment: Antiviral activity against Herpes simplex virus 1; type: functional, organism-based

Row | SMILES | IC50 (MDA-MB-231) [µM] | IC50 [1] [µM] | IC50 (A549) [µM] | IC50 [2] [µM] | IC50 (K562) [µM] | IC50 (Human alphaherpesvirus 2) [µg/mL] | IC50 (B16-F10) [µg/mL] | IC50 (Human alphaherpesvirus 1) [µg/mL]
1 | CC(O)CC1C/C=C/C=C/C=C/C(O)CC(O)CC(O)C/C=C/C=C/C=C/C(=O)O1 (stereo not drawn) [WORTMANNILACTONE A] | 108 | 28.7 | 76.5 | 35 | 65.7 | – | – | –
2 | COC1/C=C/C=C/C=C/CC(O)CC(O)C/C=C/C=C/C=C/C(=O)OC(CC(C)O)C1 (stereo not drawn) [WORTMANNILACTONE D] | 111 | 46.3 | 116 | 44.7 | 123 | – | – | –
3 | CC(O)CC1CC(O)/C=C/C=C/C=C/CC(O)CC(O)C/C=C/C=C/C=C/C(=O)O1 (stereo not drawn) [WORTMANNILACTONE C] | 120 | 56.3 | 118 | 52.4 | 130 | – | – | –
4 | COC1/C=C/C=C/C=C/CC(CC(C)O)OC(=O)/C=C/C=C/C=C/CC(O)CC(O)C1 (stereo not drawn) [WORTMANNILACTONE B] | 95.6 | 32.4 | 104 | 41.7 | 116 | – | – | –
5 | C[C@@H]1CCC/C=C/C=C/[C@H](O)C[C@@H](O)C/C=C\C=C\[C@@H](O)C/C=C/C=C\C(=O)O1 [MACROLACTIN A] | – | – | – | – | – | 8.3 (≈ 20.6 µM) | 3.5 (≈ 8.69 µM) | 5 (≈ 12.4 µM)
